Data on 2 compounds can be found in publication PMC9499467, “Phenanthroindolizidine Alkaloids Isolated from Tylophora ovata as Potent Inhibitors of Inflammation, Spheroid Growth, and Invasion of Triple-Negative Breast Cancer” (International Journal of Molecular Sciences, 2022).

For assay [1], the system named is NFκB. Kind of assay: NFκB inhibition assay (2 h), NFκB-dependent nanoluc luciferase reporter. The class given is cell-based, human. The conditions noted are these: read-out: NFκB Inhibition 2 h IC50; NFκB-MDA-MB-231-nanoluc cells, 2-h treatment, mean ± SD. As to the method:
Experiments were performed according to the published protocol. On day 1, 4 × 10^4 NFκB-MDA-MB-231-nanoluc cells were seeded into white 96 well plates (Greiner; #655098). On day 2, the medium was replaced with starvation medium and the cells were pre-incubated for 20 min with either 100 µL of DMSO (Roth; #A994.1) alone at a concentration of maximal 0.1% or with the final concentration of the diluted compounds (Table 3). To activate NFκB signaling, cells were stimulated with 1 µg/mL LPS (Sigma-Aldrich; #L2630) beforehand. NFκB-dependent luciferase activity was measured according to the manufacturer`s protocol for the Nano-Glo Luciferase Assay System (Promega, Mannheim, Germany; #N1110). NFκB-dependent luminescence was determined as relative light units (RLU) using the microplate reader Spark® (Tecan, Männedorf, Switzerland).
In general terms: Reporter assays use an easily measured gene product as a stand-in for the process of interest.

The subject of assay [2] is NFκB. As to the kind of experiment: NFκB inhibition assay (24 h), NFκB-dependent firefly luciferase reporter. It counts as cell-based. The conditions noted are these: Homo sapiens, 24 h, read-out: NFκB Inhibition 24 h IC50. The protocol:
On day 1, 3 × 10^4 NFκB MDA-MB-231-firefly cells were seeded into white 96 well plates (Greiner; #655098). On day 2, the medium was replaced with starvation medium and the cells were pre-incubated for 20 min with either 100 µL of DMSO (Roth; #A994.1) alone at maximal 0.1%, or with the final concentration of the diluted compounds (Table 3). To activate NFκB signaling, cells were stimulated with 20 ng/mL TNFα (Peprotech, Hamburg, Germany; #300-01A). Cell lysis was performed in 20 µL 1× cell lysis buffer according to the manufacturer’s instruction for the Luciferase Assay System (Promega #E1500). NFκB-dependent luminescence was determined as relative light units (RLU) using the microplate reader Spark® (Tecan).

For the next assay, the system named is MDA-MB-231. Kind of assay: 2D cell viability (PrestoBlue resazurin) in MDA-MB-231. The class given is cell-based, human. The following applies: read-out: Reduction of Cell Viability 24 h IC50; MDA-MB-231 2D monolayer, 24 h post-treatment, mean ± SD. As to the method:
Cell viability was determined based on resazurin-reduction in viable cells according to the PrestoBlue^TM Assay. On day 1, MDA-MB-231 (1.5 × 10^4 cells per well or 7.5 × 10^3 cells per well) were seeded into black 96 well plates (Greiner; #655090) in a total volume of 100 µL. On day 2, the compounds or DMSO (Roth; #A994.1) alone at maximal 0.1% were applied (final concentrations after serial dilution shown in Table 3). An amount of 20 µM staurosporine (Sigma-Aldrich; #S5921) served as a positive control. On day 3, the PrestoBlue^TM reagent (Invitrogen^TM, Darmstadt, Germany; #A13262) was applied according to the manufacturer`s instructions. Finally, cell viability-dependent fluorescence was recorded in relative fluorescence units (RFU) with excitation/emission (Exλ/Emλ) at 535/590 nm or 560/590 nm, using the microplate reader Spark® (Tecan).
In general terms: Resazurin is reduced to fluorescent resorufin, in cell work by metabolically active cells.

The test system of assay [3] is 3D co-culture spheroids of MDA-MB-231 and primary murine CAFs. Kind of assay: 3D cell viability (ATP content) in TNBC co-culture spheroids. It counts as cell-based, human MDA-MB-231. As to the method: On day 1, 3000 cells were seeded into a low-attachment 96 well plate (Greiner; #650970). […] Cell viability was determined based on the ATP content in viable cells according to the manufacturer`s instructions (Promega #G9682). Co-culture spheroids were generated for 72 h before they were grown for another 72 h with or without exposure to the compounds. […] Cell viability-dependent luminescence was determined as relative light units (RLU) using the microplate reader Spark® (Tecan).

The test system is the same in assay [4]. Kind of assay: 3D growth studies, spheroid size of co-culture spheroids. The class given is cell-based, human MDA-MB-231. The conditions noted are these: 100 nM, 72 h. The protocol: To emulate the TNBC microenvironment, 3D spheroids composed of MDA-MB-231 and CAFs at a ratio of 1:2 in a collagen-based matrix were generated. The culture medium of both cell lines was mixed (DMEM:RPMI 1640 (1:1) + 12.5% FCS + 1% PS) and supplemented with 0.05 mg/mL collagen type I (Thermo Fisher Scientific; #A1048301). On day 1, 3000 cells were seeded into a low-attachment 96 well plate (Greiner; #650970). Spheroids were grown for 72 h before proceeding with compound treatment on day 4, and analysis on day 7 according to the “Spheroid immunostaining”, “3D cell viability”, or “3D growth” studies presented in the results section.
Co-culture spheroids were generated for 72 h before they were exposed to either DMSO (Roth; #A994.1) alone at maximal 0.1%, 100 nM paclitaxel (Santa Cruz Biotechnology; #sc-201439), or 100 nM of compound (1) for another 72 h. At least three spheroids per treatment group were analyzed. For that purpose, brightfield images of the spheroids were acquired at 100× g magnification using the microscope Axio Vert.A1 (Zeiss). The spheroid surface area was quantified in brightfield images using Fiji (open-source software; version 1.52i) and was further defined as spheroid size. In each individual experiment spheroid size was normalized to the smallest (which was set to 0%) and to the largest spheroids (which was set to 100%).

The next assay concerns HIF-1α. Kind of assay: HIF inhibition, HIF-mediated UnaG reporter expression. It counts as cell-based. The following applies: for decrease of HIF-1α-mediated UnaG expression: normoxia, MDA-MB-468-UnaG. The protocol:
The HIF activity after treatment with compound (1s) or with the commercially available NFκB inhibitor BAY 11-7085 ((Hycultec, Beutelsbach, Germany; #HY-10257-10),) for 24 h was determined using the UnaG-reporter gene cell line MDA-MB-468-UnaG. On day 1, 1.5 × 10^4 MDA-MB-468-UnaG cells were seeded into a black 96 well plate (Greiner; #655090). […] HIF-mediated UnaG expression was recorded in z-stacked images using the CQ1 high-content imaging system (Yokogawa, Wehr, Germany; 100× g magnification). Beforehand, the UnaG fluorescence intensity was determined in UnaG-expressing cell clones (Figure S5).
Figure 7 Compound (1s) decreases HIF-dependent gene transcription. MDA-MB-468-UnaG cells were pre-treated for 1 h without (CTRL) or with compound (1s) or BAY 11-7085 (BAY) before being grown (a,b) in the absence (normoxia; CTRL) or (c,d) presence of 100 µM CoCl2 (hypoxia) for another 24 h. (a,c) Representative fluorescence images. Scale bar: 200 µm (b,d) Total fluorescence intensity of HIF-mediated UnaG was normalized to the CTRL group. Statistical difference was calculated with one-way ANOVA (b) vs. CTRL (normoxia) (ns = not significant, * p < 0.05). (d) vs. CTRL (hypoxia) (# p < 0.05); vs. CoCl2 (* p < 0.05, ** p < 0.01, *** p < 0.001). (b,d) Columns represent the mean ± SEM (n = 3).

Read-outs that look alike come from different tables or passages of the source.

With `COc1ccc2c3c(c4cc(OC)c(OC)cc4c2c1)CN1CCCC1C3O` (stereo not drawn) [Compound (1), O-methyltylophorinidine], the IC50 was determined as 17.1 ± 2 nM in the assay with NFκB [1]; 3.7 ± 1 nM with NFκB [2]; 13.6 ± 0.4 nM in the assay with MDA-MB-231; 21.7 ± 2.5 nM in assay [3] (read-out: Reduction of Cell Viability 72 h IC50, 3D co-culture spheroids, 72 h treatment, mean ± SD (n = 3)). The “reduction of spheroid growth compared to untreated spheroids” value in assay [4] is listed as 40%.

On to `COc1ccc2c3c(c4cc(OC)c(OC)cc4c2c1)CN1CCCC1C3O` (stereo not drawn) [Compound (1s), O-methyltylophorinidine], for which the IC50 with NFκB [1] is 3.3 ± 0.2 nM; with MDA-MB-231, 4.2 ± 1 nM; in assay [3] (Mus musculus, MDA-MB-231, 72 h, read-out: Reduction of Cell Viability 72 h IC50, 3D co-culture spheroids, 72 h treatment, mean ± SD (n = 3)), 11.2 ± 2.1 nM. Besides, the “reduction of HIF-1α-activity” value in the assay on HIF-1α (CoCl2-simulated hypoxia (100 µM), 20 nM, 24 h) is 14 ± 4%. For the same compound, the “decrease of HIF-1α-mediated UnaG expression” value came out at 11 ± 3% in the assay with HIF-1α (10 nM, 24 h) and 13 ± 4% in the assay with HIF-1α (20 nM, 24 h). Also, the “CoCl2-induced increase in HIF-1α-activity” value in the assay with HIF-1α (pre-treatment before CoCl2-simulated hypoxia, 6 µM BAY 11-7085, 2, 5, 10, 20 nM (1s)) is listed as “blocked”.

By IC50 is commonly meant the concentration that inhibits the measured activity by half.
